# In US10822317B2, “Methods and compositions for wound healing” (QBiotics Limited, priority 2013, dated 2020):
# Columns and labels:
# [1] = system: human neonatal fibroblasts; assay: Matrigel invasion assay for migratory ability; assay type: cell-based; details: 30 ng/mL; 24 hrs; fibroblasts starved 2 days, 1% foetal calf serum; ± standard deviation, two replicate experiments
# Excerpt: Matrigel invasion chambers provide cells with the conditions that allow assessment of their invasive property in vitro. The Matrigel invasion chambers consists of a cell culture companion plate with cell culture inserts containing an 8 micron pore size PET membrane with a thin layer of Matrigel Basement Membrane Matrix. The Matrigel matrix serves as a reconstituted basement membrane in vitro. The layer occludes the pores of the membrane, blocking non-invasive cells from migrating through the membrane. In contrast, invasive cells are able to detach themselves from and invade through the Matrigel matrix and the 8 micron membrane pores. The membrane may be processed for light and electron microscopy and can be easily removed after staining.
# The chambers were used according to the manufacturer's instructions, as described below in two studies, to assess the effects of Compounds 1, 2, 5 and 42 on migration of human neonatal fibroblasts. The first study assessed effects of three concentrations (0, 10 and 30 ng/mL) of Compound 1 on neonatal fibroblasts in wells containing media with 10% foetal calf serum. The second study used two concentrations (0 and 30 ng/mL) for each of Compounds 1, 2, 5 and 42 to examine effects on migration of neonatal fibroblasts starved for 2 days prior to treatment and then transferred to media with 1% foetal calf serum.
# The package containing the chambers was removed from −20° C. storage and allowed to come to room temperature. Warm (37° C.) bicarbonate based culture medium was added to the interior of the inserts (500 μL) and bottom of wells (750 μL). The chambers containing the Matrigel were allowed to rehydrate for 2 hours in humidified tissue culture incubator, 37° C., 5% CO2 atmosphere. After rehydration, the medium was carefully removed by aspiration without disturbing the layer of Matrigel™ Matrix on the membrane.
# Cells were harvested, and resuspended at 20,000 cells per mL. A total of 250 μL of the cell suspension was placed into the interior of the insert (5,000 cells). An extra 250 μL media containing the respective Compounds was then added to the interior of the insert to give the desired final concentrations for each of the two studies. A total of 750 μL of media containing appropriate concentrations of each compound in each treatment were placed in the well under the appropriate insert. The Matrigel chambers were then incubated for 24 hours in a humidified tissue culture incubator, at 37° C., 5% CO2 atmosphere.
# Non-invading cells were removed from the upper surface of the membrane by “scrubbing”. A cotton tipped swab was dipped into the insert after removal of the media, and firm pressure applied while the tip was moved over the membrane surface. The scrubbing was repeated with a second swab moistened with PBS. Cells that had invaded to the external surface of the insert were then fixed by placing in […] of 100% methanol for at least 5 mins. Inserts were then transferred to a companion plate containing 500 μL of 0.1% crystal violet in methanol, and stained for at least 15 mins. Inserts were destained by passage through 3 companion plates containing 500 μL water, before being air dried.
# The following day, the membrane was removed from the insert housing by inverting the insert and inserting the tip of a sharp scalpel blade through the membrane at the edge adjacent to the housing wall. The insert housing was rotated against the stationary blade and the membrane was released. […]
# mouse skin = assay: Acute inflammatory response in mouse skin; assay type: in vivo; details: male nude mice, s.c. 50 μL of 100 μg/mL; for scarring of the healed site: 14 days; for diameter of affected area of skin: by 24 hr
# Procedure: Male nude mice were injected subcutaneously on each flank with 50 μL of solutions of 100 μg/mL of Compounds 1, 2, 5 and 42 respectively in 20% propylene glycol. Each site reddened within 4 hr and by 24 hr the affected area covered approximately 1 cm diameter of skin.
# [2] = system: human peripheral blood monocytes; assay: Differentiation of monocytes into macrophages; assay type: cell-based; details: 10-fold dilutions; 4 days; adherence and morphology
# Procedure: To determine potential effects of Compound 1 and fifteen other epoxy-tigliane compounds in the array on monocyte differentiation, human peripheral blood mononuclear cells (PBMCs) were isolated by Ficoll-Paque sedimentation of heparinised blood from a human donor, and plated at 100,000 cells/well in RPMI-1640 10% FCS. Duplicate wells were treated with 10-fold dilutions of the compounds and incubated at 37° C. for 4 days. The wells were scored visually for cell attachment and morphology, then washed twice with PBS, stained with sulfurhodamine and the incorporate stain quantitated in an ELISA reader. The plates were then washed with water and stained with 1% crystal violet in methanol for photography and scoring of adherent cell morphology.
# [3] = system: human peripheral blood mononuclear cells (PBMCs); assay: Cytokine production by PBMCs (Cytometric Bead Array); assay type: cell-based; details: 24 hr, ± standard deviation
# Excerpt: Specific cytokines play critical roles in wound healing processes, and agents that modulate these substances may be useful in treating wounds and/or improving the cosmetic outcomes of healing (e.g. reduced scarring). The effects of Compounds 1, 2, 5 and 42 on regulation of four cytokines (IL-1β, IL-6, IL-8 and TNFα) known to be critical in early stages of the wound healing process were investigated in human peripheral blood mononuclear cells (PBMCs).
# PBMCs were isolated by Ficoll-Paque sedimentation of heparinised blood acquired from both a person (Donor 1) and (Donor 2) human donor. All cells were cultured in 10% FCS, RPMI as detailed previously.
# PBMCs were seeded at a density of 1.5×10^5 cells per well in 10% FCS, RPMI. Stimulation of these cells with the four compounds was performed at four concentrations (0 ng/mL, 3 ng/mL, 30 ng/mL, 300 ng/mL) in duplicate for 24 h in a humidified incubator at 37° C., 5% CO2. Media samples were taken from each of the required wells and frozen at −80° C. until use.
# Cytometric Bead Array (CBA) assays were used to measure the results. CBA assays provide a method for capturing a soluble analyte or set of analytes using antibody coated beads of known sizes and fluorescence. Detection is then performed using another fluorescently labelled secondary antibody to form a sandwich complex. Each media sample was assayed for the presence of soluble […], IL-6, IL-8, IL-10, IL-12p70 and TNFα using a BD (Becton Dickinson) CBA Human Inflammatory Cytokine Detection Kit according to manufacturers' instructions. Mean fluorescence intensity values from each sample were compared against a standard curve to determine cytokine concentrations (pg/mL).
# [4] = system: human neonatal fibroblasts; assay: Scratch closure, human neonatal fibroblasts, Method 3 (IncuCyte); assay type: cell-based
# Procedure: (§1) The ability of early. passage neonatal foreskin fibroblasts (NFF) cultured in RPMI 1640-10% foetal calf serum to migrate across a scratch wound made in a confluent monolayer following treatment with purified compounds or plant extracts was determined using one or more of the following three methods.
# Cells were seeded and treated in 96-well plates as in Method 2 (5 replicate wells per dilution), except that the scratches were made in one action with a tool having 96, 1 mm thick teflon coated pins (Essen Bioscience Woundmaker). The plate was then placed in a 37° C., 5% CO2 humidified atmosphere in an IncuCyte FLR instrument programmed to photograph each well under phase contrast at 3 hr intervals for 42 hours. The software determined the initial scratch boundaries and their rate of closure. Accelerated wound closure was considered to be significant if the initial rate of closure was >10% of the untreated controls.
# [5] = system: human neonatal fibroblasts; assay: Scratch closure, human neonatal fibroblasts, Method 2; assay type: cell-based
# Procedure: as §1
# Cells were seeded in 6 mm wells (96-well plates) or 16 mm (24-well plates), with 2 to 6 replicate wells/dilution, and treated as in Method 1. Immediately after treatment, the scratch edges were outlined on the underside of the well with a fine point felt pen. After fixing and staining, migration was assessed under the microscope with the aid of a graticule, scoring migration as 0, 25, 50, 75 or 100% (total closure) of the initial width. Accelerated wound closure was considered to be significant if mean quartile of replicates was […] that of untreated controls (p<0.05, t-test). In addition, “wound” areas were created by seeding cells in the presence of 3 mm stainless steel pins (96-well plate), or by inserting flat-edged Teflon rings. These devices were removed after overnight incubation of the NFF cells.
Compound,Cell count as % of control (Control = no compounds added) [1],scarring of the healed site (mouse skin),diameter of affected area of skin (mouse skin),Differentiation endpoint (endpoint concentration in dilution series for induction of macrophage phenotype) [2],"IL-1β level ([3]; Donor 1, 3 ng/mL)","IL-6 level ([3]; Donor 1, 3 ng/mL)","IL-8 level ([3]; Donor 1, 3 ng/mL)","TNFα level ([3]; Donor 1, 3 ng/mL)","IL-1β level ([3]; Donor 1, 30 ng/mL)","IL-6 level ([3]; Donor 1, 30 ng/mL)","IL-8 level ([3]; Donor 1, 30 ng/mL)","TNFα level ([3]; Donor 1, 30 ng/mL)","IL-1β level ([3]; Donor 1, 300 ng/mL)","IL-6 level ([3]; Donor 1, 300 ng/mL)","IL-8 level ([3]; Donor 1, 300 ng/mL)","TNFα level ([3]; Donor 1, 300 ng/mL)","IL-1β level ([3]; Donor 2, 3 ng/mL)","IL-6 level ([3]; Donor 2, 3 ng/mL)","IL-8 level ([3]; Donor 2, 3 ng/mL)","TNFα level ([3]; Donor 2, 3 ng/mL)",also measured
"12,13-di-hexanoyl-6,7-epoxy-4,5,9,12,13,20-hexahydroxy-1-tigliaen-3-one [Compound 42]",350 ± 101%,minimal scarring,approximately 1 cm,1 ng/mL,2.6 ± 0.6 pg/mL,8.1 ± 6.4 pg/mL,3013 ± 377 pg/mL,45.8 ± 55.2 pg/mL,16.8 ± 1.2 pg/mL,32.1 ± 6.7 pg/mL,16389 ± 884 pg/mL,271.9 ± 22.4 pg/mL,41.3 ± 1.2 pg/mL,71 ± 4.6 pg/mL,17425 ± 680 pg/mL,267.5 ± 11.9 pg/mL,21.7 ± 7.5 pg/mL,30.4 ± 11.8 pg/mL,7885 ± 2516 pg/mL,109.5 ± 29.3 pg/mL,"IL-1β level ([3]; Donor 2, 30 ng/mL): 71.2 ± 6.0 pg/mL; IL-6 level ([3]; Donor 2, 30 ng/mL): 23.6 ± 0.8 pg/mL; IL-8 level ([3]; Donor 2, 30 ng/mL): 28176 ± 37 pg/mL; TNFα level ([3]; Donor 2, 30 ng/mL): 354.2 ± 6.3 pg/mL; IL-1β level ([3]; Donor 2, 300 ng/mL): 137.8 ± 10.9 pg/mL; IL-6 level ([3]; Donor 2, 300 ng/mL): 69.3 ± 1.8 pg/mL; IL-8 level ([3]; Donor 2, 300 ng/mL): 32925 ± 552 pg/mL; TNFα level ([3]; Donor 2, 300 ng/mL): 631.6 ± 16.9 pg/mL"
"12,13-dibutanoyl-6,7-epoxy-4,5,9,12,13,20-hexahydroxy-1-tigliaen-3-one [Compound 27]",,,,,,,,,,,,,,,,,,,,,% closure compared to control ([4]; 2000 ng/mL): 130%; % closure compared to control ([5]; 1000 ng/mL): 158%
"CCCCCC(=O)OC1C(C)C2(O)C(C3OC3(CO)C(O)C3(O)C(=O)C(C)=CC32)C2C(C)(C)C12OC(=O)C(C)CC (centres unmarked) [Compound 5, 12-hexanoyl-13-(2-methylbutanoyl)-6,7-epoxy-4,5,9,12,13,20-hexahydroxy-1-tigliaen-3-one]",218 ± 21%,minimal scarring,approximately 1 cm,1 ng/mL,2.1 ± 0.1 pg/mL,12.4 ± 0.2 pg/mL,4924 ± 366 pg/mL,85.8 ± 8.4 pg/mL,15.7 ± 0.9 pg/mL,33.6 ± 0.6 pg/mL,17190 ± 55 pg/mL,289.9 ± 18.6 pg/mL,44 ± 1.6 pg/mL,77.5 ± 9.1 pg/mL,17275 ± 40 pg/mL,306.4 ± 9.0 pg/mL,8.1 ± 2.8 pg/mL,14.9 ± 1.1 pg/mL,4765 ± 999 pg/mL,53.9 ± 9.0 pg/mL,"% closure compared to control ([4]; 30 ng/mL): 209%; % closure compared to control ([4]; 200 ng/mL): 300%; IL-1β level ([3]; Donor 2, 30 ng/mL): 43.6 ± 6.1 pg/mL; IL-6 level ([3]; Donor 2, 30 ng/mL): 12.5 ± 1.2 pg/mL; IL-8 level ([3]; Donor 2, 30 ng/mL): 26288 ± 260 pg/mL; TNFα level ([3]; Donor 2, 30 ng/mL): 223 ± 11.2 pg/mL; IL-1β level ([3]; Donor 2, 300 ng/mL): 114.9 ± 2.4 pg/mL; IL-6 level ([3]; Donor 2, 300 ng/mL): 51.9 ± 1.3 pg/mL; IL-8 level ([3]; Donor 2, 300 ng/mL): 33870 ± 2532 pg/mL; TNFα level ([3]; Donor 2, 300 ng/mL): 620.9 ± 66.5 pg/mL"
"CCCC(=O)OC1C(C)C2(O)C(C3OC3(CO)C(O)C3(O)C(=O)C(C)=CC32)C2C(C)(C)C12OC(=O)C(C)CC (centres unmarked) [Compound 8, 12-butanoyl-13-(2-methylbutanoyl)-6,7-epoxy-4,5,9,12,13,20-hexahydroxy-1-tigliaen-3-one]",,,,10 ng/mL,,,,,,,,,,,,,,,,,% closure compared to control ([5]; 200 ng/mL): 190%
